Measured values: patent publication US4534898A, “1-Oxa-1-dethia-cephalosporin derivatives” (Merck & Co., Inc., priority 1982, dated 1985)
Values after ≈ are worked out from the molar mass of the structure shown. Read-outs that look alike come from different tables or passages of the source.

Columns and labels:
Assay type in all cases: cell-based
[1] = test system: Ps. aeruginosa; test: MIC against Ps. aeruginosa; details: Pseudomonas aeruginosa
Text: (§1) The compounds (I) of this invention are clearly different from various cephem derivatives described in Japanese Patent Pre-publication ("Kokai") No. 25551/78 and U.S. Pat. No. 4,226,866 in respect of the presence of a lower alkyl group at 2-position of the cephem nucleus. […] Minimum inhibitory concentrations (M.I.C.) (μg/ml) of the compounds (I) to various bacteria are set out in Table 1 below.

[2] = test system: Kl. pneumoniae PCI 602; test: MIC against Kl. pneumoniae PCI 602; details: Klebsiella pneumoniae, PCI602
Text: as §1

[3] = test system: Pr. vulgaris GN76; test: MIC against Pr. vulgaris GN76; details: Proteus vulgaris
Text: as §1

[4] = test system: Ser. marcescens No. 2; test: MIC against Ser. marcescens No. 2; details: Serratia marcescens
Text: as §1

[5] = test system: Staph. aureus 209P JC-1; test: MIC against Staph. aureus 209P JC-1; details: Staphylococcus aureus
Text: as §1

[6] = test system: Pr. mirabilis GN79; test: MIC against Pr. mirabilis GN79; details: Proteus mirabilis
Text: as §1

[7] = test system: Ent. cloacae G-0006; test: MIC against Ent. cloacae G-0006; details: Enterobacter cloacae, G0006
Text: as §1

[8] = test system: C. freundii CN346; test: MIC against C. freundii CN346; details: Citrobacter freundii
Text: as §1

[9] = test system: Staph. aureus Smith; test: MIC against Staph. aureus Smith; details: Staphylococcus aureus
Text: as §1

[10] = test system: Pr. rettgeri GN624; test: MIC against Pr. rettgeri GN624; details: Providencia rettgeri
Text: as §1

[11] = test system: S. typhimurium LT-2; test: MIC against S. typhimurium LT-2; details: Salmonella enterica
Text: as §1

[12] = Pr. vulgaris GN76, read-out: MIC
[13] = Ser. marcescens No. 2, read-out: MIC
[14] = C. freundii CN346, read-out: MIC
[15] = S. typhimurium LT-2, read-out: MIC

| SMILES | MIC [1] | MIC [2] | MIC [3, 12] | MIC [4, 13] | MIC [5] | MIC [6] | MIC [7] | MIC [8, 14] | MIC [9] | MIC [10] | MIC [11, 15] | MIC ([3]; GN76) | MIC ([11]; TYPHIMURIUM) | MIC ([4]; NO.2) | MIC ([8]; CN346) |
| --- | --- | --- | --- | --- | --- | --- | --- | --- | --- | --- | --- | --- | --- | --- | --- |
| C[C@H]1O[C@@H]2[C@H](NC(=O)Cc3cccs3)C(=O)N2C(C(=O)O)=C1CSc1nnnn1C [compound 1, 7-(2-Thienylacetamido)-2α-methyl-3-(1-methyl-1H--tetrazole-5-yl)thiomethyl-1-oxa-1-dethia-3-cephem-4-carboxylic acid] | 12.5 µg/mL (≈ 27.7 µM) | 0.1 µg/mL (≈ 0.222 µM) | 0.1 µg/mL (≈ 0.222 µM) | 0.1 µg/mL (≈ 0.222 µM) | 0.2 µg/mL (≈ 0.444 µM) | 0.1 µg/mL (≈ 0.222 µM) | 25 µg/mL (≈ 55.5 µM) | 3.13 µg/mL (≈ 6.95 µM) | 0.2 µg/mL (≈ 0.444 µM) | 0.05 µg/mL (≈ 0.111 µM) | 0.025 µg/mL (≈ 0.0555 µM) |  |  |  |  |
| C[C@@H]1O[C@@H]2[C@H](NC(=O)Cc3cccs3)C(=O)N2C(C(=O)O)=C1CSc1nnnn1C [compound 2, 7-(2-Thienylacetamido)-2β-methyl-3-(1-methyl-1H--tetrazole-5-yl)thiomethyl-1-oxa-1-dethia-3-cephem-4-carboxylic acid] | > 100 µg/mL | 1.56 µg/mL (≈ 3.46 µM) |  | 6.25 µg/mL (≈ 13.9 µM) | 0.025 µg/mL (≈ 0.0555 µM) | 12.5 µg/mL (≈ 27.7 µM) | 100 µg/mL (≈ 222 µM) | 100 µg/mL (≈ 222 µM) | 0.05 µg/mL (≈ 0.111 µM) | 12.5 µg/mL (≈ 27.7 µM) | 0.1 µg/mL (≈ 0.222 µM) | 1.56 µg/mL (≈ 3.46 µM) |  |  |  |
| CO[C@@]1(NC(=O)Cc2cccs2)C(=O)N2C(C(=O)O)=C(CSc3nnnn3C)[C@@H](C)O[C@@H]21 [compound 3, 7β-(2-Thienylacetamido)-7α-methoxy-2α-methyl-3-(1-methyl-1H--tetrazole-5-yl)thiomethyl-1-oxa-1-dethia-3-cephem-4-carboxylic acid] | > 100 µg/mL | 25 µg/mL (≈ 52 µM) | 12.5 µg/mL (≈ 26 µM) | 12.5 µg/mL (≈ 26 µM) | 0.39 µg/mL (≈ 0.812 µM) | > 100 µg/mL | > 100 µg/mL | > 100 µg/mL | 0.39 µg/mL (≈ 0.812 µM) | > 100 µg/mL |  |  | 1.56 µg/mL (≈ 3.25 µM) |  |  |
| CO[C@@]1(NC(=O)Cc2cccs2)C(=O)N2C(C(=O)O)=C(CSc3nnnn3C)[C@H](C)O[C@@H]21 [compound 4, 7β-(2-Thienylacetamido)-7α-methoxy-2β-methyl-3-(1-methyl-1H--tetrazole-5-yl)thiomethyl-1-oxa-1-dethia-3-cephem-4-carboxylic acid] | > 100 µg/mL | 1.56 µg/mL (≈ 3.25 µM) | 0.39 µg/mL (≈ 0.812 µM) |  | 0.2 µg/mL (≈ 0.416 µM) | 12.5 µg/mL (≈ 26 µM) | 100 µg/mL (≈ 208 µM) | 100 µg/mL (≈ 208 µM) | 0.2 µg/mL (≈ 0.416 µM) | 25 µg/mL (≈ 52 µM) | 0.05 µg/mL (≈ 0.104 µM) |  |  | 1.56 µg/mL (≈ 3.25 µM) |  |
| CO[C@@]1(NC(=O)C(C(=O)O)c2cccs2)C(=O)N2C(C(=O)O)=C(CSc3nnnn3C)[C@@H](C)O[C@@H]21 (stereo partly drawn) [compound 5, 7β-[2-(2-Thienyl)-2-carboxyacetamido]-7α-methoxy-2α-methyl-3-(1-methyl-1H--tetrazole-5-yl)thiomethyl-1-oxa-1-dethia-3-cephem-4-carboxylic acid] | 100 µg/mL (≈ 191 µM) | 1.56 µg/mL (≈ 2.97 µM) | 0.39 µg/mL (≈ 0.744 µM) | 0.78 µg/mL (≈ 1.49 µM) | 0.78 µg/mL (≈ 1.49 µM) | 0.78 µg/mL (≈ 1.49 µM) | 100 µg/mL (≈ 191 µM) | 25 µg/mL (≈ 47.7 µM) | 0.78 µg/mL (≈ 1.49 µM) | 3.13 µg/mL (≈ 5.97 µM) | 0.1 µg/mL (≈ 0.191 µM) |  |  |  |  |
| CO[C@@]1(NC(=O)C(C(=O)O)c2cccs2)C(=O)N2C(C(=O)O)=C(CSc3nnnn3C)[C@H](C)O[C@@H]21 (stereo partly drawn) [compound 6, 7β-[2-(2-Thienyl)-2-carboxyacetamido]-7α-methoxy-2β-methyl-3-(1-methyl-1H--tetrazole-5-yl)thiomethyl-1-oxa-1-dethia-3-cephem-4-carboxylic acid] | 25 µg/mL (≈ 47.7 µM) | 1.56 µg/mL (≈ 2.97 µM) | 0.1 µg/mL (≈ 0.191 µM) | 0.2 µg/mL (≈ 0.381 µM) | 0.39 µg/mL (≈ 0.744 µM) | 0.1 µg/mL (≈ 0.191 µM) | 6.25 µg/mL (≈ 11.9 µM) |  | 0.78 µg/mL (≈ 1.49 µM) | ≤ 0.025 µg/mL | ≤ 0.025 µg/mL |  |  |  | 1.56 µg/mL (≈ 2.97 µM) |
| CO[C@@]1(NC(=O)C(C(=O)O)c2ccsc2)C(=O)N2C(C(=O)O)=C(CSc3nnnn3C)[C@H](C)O[C@@H]21 (stereo partly drawn) [compound 7, 7β-[2-(3-Thienyl)-2-carboxyacetamido]-7α-methoxy-2β-methyl-3-(1-methyl-1H--tetrazole-5-yl)thiomethyl-1-oxa-1-dethia-3-cephem-4-carboxylic acid] | 25 µg/mL (≈ 47.7 µM) | 0.05 µg/mL (≈ 0.0953 µM) | 0.1 µg/mL (≈ 0.191 µM) | 0.2 µg/mL (≈ 0.381 µM) | 1.56 µg/mL (≈ 2.97 µM) | 0.2 µg/mL (≈ 0.381 µM) | 3.13 µg/mL (≈ 5.97 µM) | 1.56 µg/mL (≈ 2.97 µM) | 1.56 µg/mL (≈ 2.97 µM) | 0.05 µg/mL (≈ 0.0953 µM) | ≤ 0.025 µg/mL |  |  |  |  |
